# According to publication PMC6556873, “Rapid Covalent-Probe Discovery by Electrophile-Fragment Screening” (Journal of the American Chemical Society, 2019):
# Read-outs that look alike come from different tables or passages of the source.
# Tests used:
# in vitro [1] = assay: in vitro; set-up: species or system CCD841, HEK293; settings: human, hb2 cells, read-out: HB-2 Cells Viability (%)
# BSA = molecular target: T1, BSA (Bos taurus, UniProt P02769); set-up: Intact protein LC/MS covalent labelling, fragments in pools of five, 200 uM each, 4 °C; settings: 24 h, 4 °C, pool of five; 200 µM; covalent
# T1 construct: gene ALB
# T1 sequence (P02769 whole entry, the tested form may be a part): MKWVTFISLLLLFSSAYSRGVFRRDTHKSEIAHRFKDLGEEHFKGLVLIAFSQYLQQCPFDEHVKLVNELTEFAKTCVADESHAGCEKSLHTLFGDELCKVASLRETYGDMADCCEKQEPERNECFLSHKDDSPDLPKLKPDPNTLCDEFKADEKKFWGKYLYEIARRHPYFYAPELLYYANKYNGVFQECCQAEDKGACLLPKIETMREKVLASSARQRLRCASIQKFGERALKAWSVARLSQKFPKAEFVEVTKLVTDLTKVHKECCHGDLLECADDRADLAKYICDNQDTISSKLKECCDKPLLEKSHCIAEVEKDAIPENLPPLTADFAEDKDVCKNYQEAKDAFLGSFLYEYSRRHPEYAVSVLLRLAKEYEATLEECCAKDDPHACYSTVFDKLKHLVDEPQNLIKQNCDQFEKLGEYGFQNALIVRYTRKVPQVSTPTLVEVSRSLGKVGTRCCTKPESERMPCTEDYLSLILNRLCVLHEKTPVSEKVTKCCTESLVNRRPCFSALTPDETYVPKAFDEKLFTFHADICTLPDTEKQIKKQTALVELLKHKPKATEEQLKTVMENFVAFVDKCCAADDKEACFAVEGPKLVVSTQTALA
# OTUB2 (OTUB2A) = molecular target: T2, OTUB2 (OTUB2A) (Homo sapiens, UniProt Q96DC9); set-up: Intact protein LC/MS covalent labelling, fragments in pools of five, 200 uM each, 4 °C; settings: 24 h, 4 °C, pool of five; 200 µM; covalent
# T2 construct: full length residues 1-234, E. coli BL21(DE3)-R3, His tag removed by TEV, construct 27312 Da
# T2 sequence (Q96DC9 1-234): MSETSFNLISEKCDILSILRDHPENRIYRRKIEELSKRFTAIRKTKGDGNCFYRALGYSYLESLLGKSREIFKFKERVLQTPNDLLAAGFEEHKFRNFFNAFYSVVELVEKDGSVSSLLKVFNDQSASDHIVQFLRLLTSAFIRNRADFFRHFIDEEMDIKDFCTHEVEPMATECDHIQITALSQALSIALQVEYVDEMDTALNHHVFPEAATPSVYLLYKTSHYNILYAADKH
# NUDT7 = molecular target: T3, NUDT7 (Homo sapiens, UniProt P0C024); set-up: Intact protein LC/MS covalent labelling, fragments in pools of five, 200 uM each, 4 °C; settings: 24 h, 4 °C, pool of five; 200 µM; covalent
# T3 construct: residues 14-235, E. coli, pNIC28-Bsa4, N-terminal His6 tag removed by TEV, construct 26672 Da
# T3 sequence (P0C024 14-235): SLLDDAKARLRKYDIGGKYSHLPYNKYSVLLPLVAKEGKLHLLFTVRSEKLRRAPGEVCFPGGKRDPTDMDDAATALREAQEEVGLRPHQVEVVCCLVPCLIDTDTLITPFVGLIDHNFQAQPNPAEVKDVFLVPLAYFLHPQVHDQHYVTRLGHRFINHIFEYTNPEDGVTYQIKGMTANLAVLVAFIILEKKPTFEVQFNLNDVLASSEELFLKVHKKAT
# PCAF = molecular target: T4, PCAF (Homo sapiens, UniProt Q92831); set-up: Intact protein LC/MS covalent labelling, fragments in pools of five, 200 uM each, 4 °C; settings: 24 h, 4 °C, pool of five; 200 µM; covalent
# T4 construct: gene KAT2B
# T4 sequence (Q92831 whole entry, the tested form may be a part): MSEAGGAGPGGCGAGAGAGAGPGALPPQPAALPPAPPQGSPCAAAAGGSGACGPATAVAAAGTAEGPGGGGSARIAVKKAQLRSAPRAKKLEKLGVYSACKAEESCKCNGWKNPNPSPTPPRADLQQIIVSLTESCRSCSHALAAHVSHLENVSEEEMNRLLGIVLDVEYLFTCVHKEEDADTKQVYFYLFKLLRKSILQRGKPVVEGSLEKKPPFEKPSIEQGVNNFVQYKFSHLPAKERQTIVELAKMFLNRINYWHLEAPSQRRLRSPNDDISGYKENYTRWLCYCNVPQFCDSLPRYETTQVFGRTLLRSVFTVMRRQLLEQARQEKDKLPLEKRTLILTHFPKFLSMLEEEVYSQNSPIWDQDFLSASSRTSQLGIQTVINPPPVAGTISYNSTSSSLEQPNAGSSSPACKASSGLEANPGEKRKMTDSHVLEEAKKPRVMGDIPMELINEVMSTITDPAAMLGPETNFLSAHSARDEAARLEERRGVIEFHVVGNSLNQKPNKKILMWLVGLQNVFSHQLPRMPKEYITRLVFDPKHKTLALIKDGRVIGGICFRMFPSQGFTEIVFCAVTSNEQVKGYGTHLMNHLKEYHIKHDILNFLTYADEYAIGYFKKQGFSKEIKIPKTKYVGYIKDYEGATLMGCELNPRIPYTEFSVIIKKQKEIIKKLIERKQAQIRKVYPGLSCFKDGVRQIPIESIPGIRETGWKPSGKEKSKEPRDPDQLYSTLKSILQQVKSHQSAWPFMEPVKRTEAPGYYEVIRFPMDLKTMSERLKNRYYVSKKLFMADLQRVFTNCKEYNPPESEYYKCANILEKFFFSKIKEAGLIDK
# NNMT (hNNMT) = molecular target: T5, NNMT (hNNMT) (Homo sapiens, UniProt P40261); set-up: Intact protein LC/MS covalent labelling, fragments in pools of five, 200 uM each, 4 °C; settings: 24 h, 4 °C, pool of five; 200 µM; covalent
# T5 construct: wild type, N-terminal His6 tag kept (no cleavage described), E. coli, construct 31248 Da
# T5 sequence (P40261 1-264): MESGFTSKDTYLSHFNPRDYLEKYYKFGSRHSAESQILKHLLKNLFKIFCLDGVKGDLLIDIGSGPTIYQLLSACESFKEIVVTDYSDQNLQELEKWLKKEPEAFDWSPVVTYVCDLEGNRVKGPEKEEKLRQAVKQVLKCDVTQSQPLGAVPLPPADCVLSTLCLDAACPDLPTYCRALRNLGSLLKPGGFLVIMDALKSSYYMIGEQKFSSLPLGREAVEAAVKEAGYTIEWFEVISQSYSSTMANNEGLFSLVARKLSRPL
# in vitro [2] = assay: in vitro; set-up: species or system HB2, CCD841; settings: human, hek293 cells
# in vitro [3] = assay: in vitro; set-up: species or system HB2, HEK293; settings: human, ccd841 cells
SMILES,"viability at 48 h, 10 µM (in vitro [1])",BSA (BSA),OTUB2 (OTUB2 (OTUB2A)),NUDT7 (NUDT7),PCAF (PCAF),NNMT (NNMT (hNNMT)),"viability at 48 h, 10 µM (in vitro [2])","viability at 48 h, 10 µM (in vitro [3])"
C=CC(=O)N1CCC(CS(C)(=O)=O)CC1 [PCM-0102651],105%,0,0,0,0,0,100%,108%
COc1ccc(NC(=O)CCl)cc1Cl [PCM-0102652],10%,0,0.24,0.12,0,0.83,2.6%,29.3%
Cl.O=C(CCl)Nc1cccnc1 [PCM-0102653],84.6%,0,0,0,0,0,93.3%,85.6%
O=C(CCl)N1CCC(C(=O)N2CCCC2)CC1 [PCM-0102655],94%,0,0,0,0,0.17,87%,78.5%
O=C(CCl)Nc1ccccc1 [PCM-0102658],72%,0,0,0,0,0,56.1%,67%
Cc1ccc(CNC(=O)CCl)cc1 [PCM-0102660],87.4%,0,0.63,0,0,0,93.6%,80.3%
O=C(CCl)Nc1ccc2c(c1)CCC2 [PCM-0102662],16.3%,0,0.14,0.12,0,0.22,4.7%,56.2%
CC1CCC2(CC1)NC(=O)N(NC(=O)CCl)C2=O (stereo not shown) [PCM-0102666],97.3%,0,0,0,0,0,99.9%,79.9%
C=CC(=O)N1CCC2C(CCCN2Cc2ccccc2)C1 (stereo not shown) [PCM-0102673],102%,0,0,0,0,0,85%,116%
C=CC(=O)N1CCCCC1c1cnn(C)c1 (stereo not shown) [PCM-0102675],95.7%,0,0,0.1,0,0,88.5%,103%
C=CC(=O)N(C)Cc1c(C)nc2sc(C)cn12 [PCM-0102679],103%,0,0,0.06,0,0.32,83.2%,108%
C=CC(=O)N1CCCC1C(=O)Nc1nc2ccccc2s1 (stereo not shown) [PCM-0102681],95.7%,0,0,0,0,0,79.7%,115%
C=CC(=O)N1CCN(C(=O)CN2C(=O)CCC2=O)CC1 [PCM-0102684],99.9%,0,0,0.08,0,0,105%,103%
C=CC(=O)N1CC=C(C(F)(F)F)CC1 [PCM-0102685],103%,0,0,0,0,0.17,98%,105%
C=CC(=O)Nc1cc(CC(C)(C)C)nn1C [PCM-0102686],102%,0,0,0.15,0,0.12,75.3%,144%
C=CC(=O)N1CC(c2ccccc2)C2COCCC21 (stereo not shown) [PCM-0102687],103%,0,0,0,0,0,114%,105%
O=C(CCl)NC(=O)NC1CCCCC1 [PCM-0102692],48.7%,0,0,0,0,0.76,62.3%,70.7%
Cc1ccccc1CN(C)C(=O)CCl [PCM-0102707],7.9%,0,0,0.13,0,0.13,11.6%,57%
Cc1ccc(Cn2ccsc2=NC(=O)CCl)cc1 [PCM-0102708],36%,0,0,0.09,0,0,7.9%,3%
CN(CCC#N)C(=O)CCl [PCM-0102712],89.4%,0,0,0,0,0.32,80.3%,79.6%
